Data: PubChem BioAssay AID1963841 (Molecular Pharmacology Branch, DTP, NCI, 2024)

System: 439559-082-T-J2-PDC spheroid viability
Assay: Anticancer human tumor 439559-082-T-J2-PDC patient-derived colon adenocarcinoma cell line growth inhibition [POLQ]
Details: spheroids with HUVEC and MSC; for viability, T/C: stronger effect = lower value
Summary of the method: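 Complex spheroid viability model combining PDC tumour cells with endothelial (HUVEC) and MSC stromal cells. Novobiocin, ART-558 or RP6685 were tested singly and in combination with standard and investigational anticancer drugs. Each was titrated in half-log steps from near clinical Cmax, or from 10 microM where Cmax was unknown.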
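Further: spheroids exposed to compounds for seven days before readout.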
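Wherever viability, T/C is given: 100% = DMSO vehicle control viability.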

With Nc1ccc(C#CCN(C(=O)Cc2ncc(C(F)(F)F)cc2C(F)(F)F)c2ccc(F)cc2)nn1 the viability, T/C (compound 0.0316 µM) was 96.1% [middle of 13 runs], the viability, T/C (compound 0.1 µM) was 97.8% [middle of 13 runs] and the viability, T/C (compound 0.316 µM) was 96% [middle of 13 runs]. For the same molecule, the viability, T/C (compound 1 µM) was 100% [middle of 13 runs], the viability, T/C (compound 3.16 µM) was 99.5% [middle of 13 runs] and the IC50 (compound alone, run of 12/05/2023) was greater than 10 µM.
CC(C)n1c(=O)n(C)c2cnc3cc(F)c(-c4ccc(OCCCN5CCCCC5)nc4)cc3c21 + Cc1cccc(N(C)C(=O)C2C(O)CCN2c2nc(C)cc(C(F)(F)F)c2C#N)c1 gave an IC50 (curve of first compound, second compound 0.0316 µM) greater than 10 µM, an IC50 (curve of first compound, second compound 0.1 µM) greater than 10 µM and an IC50 (curve of first compound, second compound 0.316 µM) greater than 10 µM. It also gave an IC50 (curve of first compound, second compound 1 µM) greater than 10 µM, an IC50 (curve of first compound, second compound 3.16 µM) greater than 10 µM and an IC50 (curve of first compound, second compound 10 µM) greater than 10 µM. The viability, T/C (second compound 0.0316 µM, first compound 0.0316 µM) was 103%, the viability, T/C (second compound 0.0316 µM, first compound 0.1 µM) was 106% and the viability, T/C (second compound 0.0316 µM, first compound 0.316 µM) was 109%. For the same molecule, the viability, T/C (second compound 0.0316 µM, first compound 1 µM) was 116%, the viability, T/C (second compound 0.0316 µM, first compound 3.16 µM) was 99.8% and the viability, T/C (second compound 0.0316 µM, first compound 10 µM) was 93.9%. It also gave a viability, T/C (second compound 0.1 µM, first compound 0.0316 µM) of 115%, a viability, T/C (second compound 0.1 µM, first compound 0.1 µM) of 105% and a viability, T/C (second compound 0.1 µM, first compound 0.316 µM) of 107%. The viability, T/C (second compound 0.1 µM, first compound 1 µM) was 111%, the viability, T/C (second compound 0.1 µM, first compound 3.16 µM) was 109% and the viability, T/C (second compound 0.1 µM, first compound 10 µM) was 94%. It also gave a viability, T/C (second compound 0.316 µM, first compound 0.0316 µM) of 103%, a viability, T/C (second compound 0.316 µM, first compound 0.1 µM) of 104% and a viability, T/C (second compound 0.316 µM, first compound 0.316 µM) of 108%. For the same molecule, the viability, T/C (second compound 0.316 µM, first compound 1 µM) was 107%, the viability, T/C (second compound 0.316 µM, first compound 3.16 µM) was 110% and the viability, T/C (second compound 0.316 µM, first compound 10 µM) was 102%. For the same molecule, the viability, T/C (second compound 1 µM, first compound 0.0316 µM) was 108%, the viability, T/C (second compound 1 µM, first compound 0.1 µM) was 103% and the viability, T/C (second compound 1 µM, first compound 0.316 µM) was 108%. It also gave a viability, T/C (second compound 1 µM, first compound 1 µM) of 115%, a viability, T/C (second compound 1 µM, first compound 3.16 µM) of 108% and a viability, T/C (second compound 1 µM, first compound 10 µM) of 87.4%. The viability, T/C (second compound 3.16 µM, first compound 0.0316 µM) was 93.5%, the viability, T/C (second compound 3.16 µM, first compound 0.1 µM) was 111% and the viability, T/C (second compound 3.16 µM, first compound 0.316 µM) was 96.9%. It also gave a viability, T/C (second compound 3.16 µM, first compound 1 µM) of 112%, a viability, T/C (second compound 3.16 µM, first compound 3.16 µM) of 103% and a viability, T/C (second compound 3.16 µM, first compound 10 µM) of 81.5%. It also gave a viability, T/C (second compound 10 µM, first compound 0.0316 µM) of 96.5%, a viability, T/C (second compound 10 µM, first compound 0.1 µM) of 93.6% and a viability, T/C (second compound 10 µM, first compound 0.316 µM) of 108%. The viability, T/C (second compound 10 µM, first compound 1 µM) was 101%, the viability, T/C (second compound 10 µM, first compound 3.16 µM) was 97.6% and the viability, T/C (second compound 10 µM, first compound 10 µM) was 87.4%.
